Where a name gives a salt, the structure may show the parent alone.
system: F-2,6-P2 in PANC-1 cells; assay: Quantification of F-2,6-P2 (Van Schaftingen coupled enzyme assay) in PANC-1 cells; assay type: cell-based, human; conditions: Homo sapiens; PANC-1 cells; read-out: IC50 based on quantification of F-2,6-P2
From the text: (§1) A method for quantification of F-2,6-P2 has been described by Van Schaftingen et al. (1982) Eur. J. Biochem. 129, 191-5. This sensitive assay is based on the potent activation of pyrophosphate dependent phosphofructokinase-1 (PPi-PFK) from potato tubers by F-2,6-P2. The use of a series of coupled enzymes leads to a consumption of NADH (nicotinamide adenine dinucleotide) that can be followed spectrophotometrically (an updated protocol is available in Van Schaftingen, (1984) Methods of Enzymatic Analysis (Bergmeyer, H. U., ed.), 3rd edn., vol. 6, pp. 335-341, Verlag Chemie, Weinheim). A protocol for measurements in 96-well microtiter plate format is also available (Bruni et al., (1989) Anal. Biochem. 178, 324-6).
(§2) The levels of F-2,6-P2 have been determined using the van Shaftingen assay as described in the protocol below, in six different cancer cell lines endogenously expressing varying levels of the different isoforms of PFK-2/BPase-2 (MCF-7, PANC-1, NUGC-3, SW480, SW620 and MIA PaCa-2). All reagents were purchased from commercial sources or prepared in-house.
Cell line B (PANC-1, human pancreatic carcinoma cell line): PANC-1 cells (ATCC-CRL-1469), lot. no. 58564651. Cells were seeded at a concentration of ˜250 000 cells/mL in 100 μL growth medium (˜25 000 cells/well).
Growth medium (cell lines B-F): Dulbecco's Modified Eagle's Medium, DMEM, VWR, LONZ12-604F; 10% FBS, Invitrogen, 10270-106.
(§3) Starvation medium (cell lines A-F): DMEM/F12 without phenol red and glucose free, SVA, 991373; 0.25% FBS, Invitrogen, 10270-106.
(§4) Induction medium (cell lines A-F): DMEM/F12 without phenol red and glucose free, SVA, 991373; 0.25% FBS, Invitrogen, 10270-106 (same as starvation medium).
(§5) Cells were seeded in 96-well Corning Costar tissue culture plates (CLS3595, Sigma-Aldrich) using the concentrations specified above for the different cell lines A-F and incubated over night at 37° C. and 5% CO2. Row A in the plate was left empty and the cell lines added to rows B-H. Next day the growth medium was discarded and replaced with 100 μL starvation medium. The plates were incubated for 18 h at 37° C. and 5% CO2. After 18 h of starvation the cells were induced with 100 μL compound or control solutions. Compounds were either tested in two concentrations (50 μM and 10 μM) or in dose response curves starting from 50 μM. The final DMSO concentration in assay plates was 0.5%. Also a dose response curve of a reference inhibitor was included in row H on each plate. All compounds were tested in duplicate plates. Compounds (in 96 well CLS 3365, Sigma-Aldrich plates) were serial diluted in DMSO from 10 mM compound DMSO stock solutions with Janus (automated liquid handling workstation from PerkinElmer). Five μL were transferred to a Greiner deep well plate (736-0155, VWR) with 495 μL starvation medium. The final start concentration of compounds in the dilution plate was 100 μM, 1% DMSO. For compounds tested as single points, 10 mM compound solutions were diluted five fold in DMSO to 2 mM, followed by the transfer of 5 μL to separate dilution plates with 495 μL starvation medium. The final concentrations of compounds in these dilution plates were 100 or 20 μM, respectively, and final concentration of DMSO was 1%. The plates were incubated at 37° C. and 5% CO2 for 1 h, followed by the addition of 10 μL 20 mM D-glucose in starvation medium. Controls, with and without 1 mM glucose, were included in row B. The final assay volume was 210 μL per well. After 2 h of incubation at 37° C. and 5% CO2, the supernatants were discarded and the cells lysed by the addition of 25 μL 250 mM NaOH. The plates were incubated at 37° C. and 5% CO2 for 5 min followed by an addition of 75 μL MilliQ dH2O. The supernatants were further diluted with 210 μL MilliQ dH2O to a final concentration of 20 mM NaOH. 200 μL were transferred to NUNC 96-well plates (7322661, VWR) and the plates were sealed and stored at −20° C. until analysis. […]

Row | SMILES | IC50 [µM]
1 | COC(=O)c1ccc(NS(=O)(=O)c2cc(Cl)c(Cl)s2)cc1O [Example 27, Methyl 4-{[(4,5-dichloro-2-thienyl)sulfonyl]amino}-2-hydroxybenzoate] | 0.8
2 | COC(=O)c1ccc(NS(=O)(=O)c2cc(-c3cccc(C(=O)N(C)C)c3)c(Cl)s2)cc1O [Example 143, Methyl 4-[({5-chloro-4-[3-(dimethylcarbamoyl)phenyl]thiophen-2-yl}sulfonyl)amino]-2-hydroxybenzoate] | 2.4
3 | COC(=O)c1ccc(NS(=O)(=O)c2cnc(Cl)c(-c3ccc4c(c3)CCO4)c2)cc1O [Example 155, Methyl 4-({[6-chloro-5-(2,3-dihydro-1-benzofuran-5-yl)pyridin-3-yl]sulfonyl}amino)-2-hydroxybenzoate] | 4.9
4 | COCCOC(=O)c1ccc(NS(=O)(=O)c2cccc(-c3ccc4c(c3)CCO4)c2)cc1O [Example 175, 2-Methoxyethyl 4-({[3-(2,3-dihydro-1-benzofuran-5-yl)phenyl]sulfonyl}amino)-2-hydroxybenzoate] | 0.7
5 | O=C(OCCCN1CCOCC1)c1ccc(NS(=O)(=O)c2cc(Cl)cc(Cl)c2)cc1O [Example 187, 3-Morpholin-4-ylpropyl 4-{[(3,5-dichlorophenyl)sulfonyl]amino}-2-hydroxybenzoate trifluoroacetate] | 6.8
6 | COCCOC(=O)c1ccc(NS(=O)(=O)c2c(Cl)sc(Cl)c2Br)cc1O [Example 197, 2-Methoxyethyl 4-{[(4-bromo-2,5-dichlorothiophen-3-yl)sulfonyl]amino}-2-hydroxybenzoate] | 3.5
7 | O=C(OC1CCN(Cc2ccccc2)C1)c1ccc(NS(=O)(=O)c2c(Cl)sc(Cl)c2Cl)cc1O (stereo not shown) [Example 204, 1-Benzylpyrrolidin-3-yl 2-hydroxy-4-{[(2,4,5-trichloro-3-thienyl)sulfonyl]amino}benzoate] | 1.8
8 | COC(=O)c1ccc(NS(=O)(=O)c2cc(Cl)c(-c3ccccc3O)s2)cc1O [Example 206, Methyl 4-({[4-chloro-5-(2-hydroxyphenyl)thiophen-2-yl]sulfonyl}amino)-2-hydroxybenzoate] | 8.9
9 | O=C(OCCCN1CCOCC1)c1ccc(NS(=O)(=O)c2cc(-c3cc(F)ccc3O)c(Cl)s2)cc1O [Example 213, 3-Morpholin-4-ylpropyl 4-({[5-chloro-4-(5-fluoro-2-hydroxyphenyl)-2-thienyl]sulfonyl}amino)-2-hydroxybenzoate trifluoroacetate] | 0.6
10 | O=C(OCCO)c1ccc(NS(=O)(=O)c2cc(-c3ccccc3)c(Cl)s2)cc1O [Example 217, 2-Hydroxyethyl 4-{[(5-chloro-4-phenyl-2-thienyl)sulfonyl]amino}-2-hydroxybenzoate] | 1.4
11 | COCC(COC)OC(=O)c1ccc(NS(=O)(=O)c2cc(-c3cccc(F)c3)c(Cl)s2)cc1O [Example 222, 2-Methoxy-1-(methoxymethyl)ethyl 4-({[5-chloro-4-(3-fluorophenyl)-2-thienyl]sulfonyl}amino)-2-hydroxybenzoate] | 2
12 | O=C(OCCCNc1cccnc1)c1ccc(NS(=O)(=O)c2cccc(-c3cc(F)ccc3O)c2)cc1O [Example 230, 3-(Pyridin-3-ylamino)propyl 4-{[(5′-fluoro-2′-hydroxybiphenyl-3-yl)sulfonyl]amino}-2-hydroxybenzoate trifluoroacetate] | 1.9
13 | Cc1cc(NCCCOC(=O)c2ccc(NS(=O)(=O)c3cccc(-c4cc(F)ccc4O)c3)cc2O)no1 [Example 232, 3-[(5-Methylisoxazol-3-yl)amino]propyl 4-{[(5′-fluoro-2′-hydroxybiphenyl-3-yl)sulfonyl]amino}-2-hydroxybenzoate trifluoroacetate] | 0.8

same assay, conditions: at 12.5-50 μM in PANC-1 cells

Row | SMILES | inhibition (F-2,6-P2 levels) [%]
14 | COC(=O)c1ccc(NS(=O)(=O)c2cc(Cl)c(-c3ccccc3OC)s2)cc1O [Example 207, Methyl 4-({[4-chloro-5-(2-methoxyphenyl)thiophen-2-yl]sulfonyl}amino)-2-hydroxybenzoate] | ≥ 50
15 | O=C(O)C(F)(F)F.O=C(OCCOc1ccc(Cl)nc1)c1ccc(NS(=O)(=O)c2cc(Cl)c(Cl)s2)cc1O [Example 226, 2-[(6-Chloropyridin-3-yl)oxy]ethyl 4-{[(4,5-dichloro-2-thienyl)sulfonyl]amino}-2-hydroxybenzoate trifluoroacetate] | ≥ 50
16 | COCc1cccc(OCCOC(=O)c2ccc(NS(=O)(=O)c3cc(Cl)c(Cl)s3)cc2O)c1 [Example 227, 2-[3-(Methoxymethyl)phenoxy]ethyl 4-{[(4,5-dichloro-2-thienyl)sulfonyl]amino}-2-hydroxybenzoate] | ≥ 50

system: F-2,6-P2 in NUGC-3 cells; assay: Quantification of F-2,6-P2 (Van Schaftingen coupled enzyme assay) in NUGC-3 cells; assay type: cell-based; conditions: Homo sapiens; NUGC-3 cells, under hypoxia (0.6-1% O2); read-out: IC50 based on quantification of F-2,6-P2
From the text: as §1, §2
Cell line C (NUGC-3, human gastric cancer cell line): NUGC-3 cells (JCRB0822), lot no. 04272009. Growth medium: RPMI1640, #R8758, Sigma-Aldrich; 10% FBS, Invitrogen, 10270-106 or Dulbecco's Modified Eagle's Medium, DMEM, VWR, LONZ12-604F; 10% FBS, Invitrogen, 10270-106. Cells were seeded at a concentration of ˜350 000 cells/mL in 100 μL growth medium (˜35 000 cells/well).
as §3, §4, §5

Row | SMILES | IC50 [µM]
17 | Cn1c(COC(=O)c2ccc(NS(=O)(=O)c3cc(Cl)c(Cl)s3)cc2O)cnc1[N+](=O)[O-] [Example 202, (1-Methyl-2-nitro-1H-imidazol-5-yl)methyl 4-{[(4,5-dichlorothiophen-2-yl)sulfonyl]amino}-2-hydroxybenzoate] | 5.6

same assay, conditions: Homo sapiens; NUGC-3 cells; read-out: IC50 based on quantification of F-2,6-P2

Row | SMILES | IC50 [µM]
18 | COC(=O)c1ccc(NS(=O)(=O)c2cc(Cl)c(Cl)s2)cc1O [Example 27, Methyl 4-{[(4,5-dichloro-2-thienyl)sulfonyl]amino}-2-hydroxybenzoate] | 0.9
19 | COC(=O)c1ccc(NS(=O)(=O)c2cccc(-c3cc(F)ccc3F)c2)cc1O [Example 153, Methyl 4-{[(2′,5′-difluorobiphenyl-3-yl)sulfonyl]amino}-2-hydroxybenzoate] | 5.1
20 | O=C(OCCCN1CCOCC1)c1ccc(NS(=O)(=O)c2cc(-c3ccc4c(c3)OCO4)c(Cl)s2)cc1O [Example 162, 3-Morpholin-4-ylpropyl 4-({[4-(1,3-benzodioxol-5-yl)-5-chloro-2-thienyl]sulfonyl}amino)-2-hydroxybenzoate trifluoroacetate] | 2.8
21 | COCC(COC)OC(=O)c1ccc(NS(=O)(=O)c2cc(Cl)cc(Cl)c2)cc1O [Example 191, 2-Methoxy-1-(methoxymethyl)ethyl 4-{[(3,5-dichlorophenyl)sulfonyl]amino}-2-hydroxybenzoate] | 1.4
22 | CC(CCN1CCOCC1)OC(=O)c1ccc(NS(=O)(=O)c2cc(Cl)c(Cl)s2)cc1O (stereo not shown) [Example 193] | 1.2
